# Results from PMC1310925, “Organotins Disrupt the 11β-Hydroxysteroid Dehydrogenase Type 2–Dependent Local Inactivation of Glucocorticoids” (Environmental Health Perspectives, 2005).
# Tests used:
# [1] = ref McVey and Cooke 2003; cited from earlier work
# 11β-HSD2 Cys^248Ser = 11β-HSD2 Cys^248Ser (Homo sapiens, UniProt P80365, C248S); details: read-out: TBT IC50 ± SD, Cys^248Ser; mutant Cys^248Ser, lysate
# Procedure: (§1) Cells were rinsed 3 times with phosphate-buffered saline (PBS) and resuspended in 2 mL ice-cold buffer TS2 (100 mM NaCl, 1 mM EGTA, 1 mM EDTA, 1 mM MgCl2, 250 mM sucrose, 20 mM Tris-HCl, pH 7.4). […] For determinationof 11β-HSD2 activity, aliquots were thawed, sonicated, and diluted 1:12 in buffer TS2 (4°C). We carried out reactions in a final volume of 20 μL containing 10 nCi [1,2,6,7-^3H]-cortisol, 400-μM NAD^+, and different concentrations of unlabeled cortisol. […] Incubations were for 10 min at 37°C.
# (§2) All constructs were verified by sequencing and recloned into pcDNA3 expression vector. Wild-type and mutant enzymes were expressed in HEK-293 cells, lysates were prepared, and proteins were separated by sodium dodecyl sulfate (SDS) gel electrophoresis. Proteins were transferred to nitrocellulose, and expression levels of 11β-HSD2 constructs were detected using mouse monoclonal antibody M2 raised against the FLAG epitope and visualized with a horseradish peroxidase conjugated anti-mouse antibody and enhanced chemiluminescence Western kit (Pierce, Rockford, IL, USA). After detection of 11β-HSD2 constructs, nitrocellulose membranes were stripped and incubated with rabbit polyclonal anti-actin IgG (Santa Cruz Biotechnology Inc., Santa Cruz, CA, USA) and horseradish peroxidase–conjugated goat anti-rabbit IgG to adjust for the amount of proteins loaded on the gel. The expression of mutant relative to wild-type enzyme was adjusted for calculation of kinetic parameters.
# 11β-HSD2 Cys^264Ser = 11β-HSD2 Cys^264Ser (Homo sapiens, UniProt P80365, C264S); details: lysate
# Chain of 11β-HSD2 Cys^264Ser (P80365 whole entry C264S): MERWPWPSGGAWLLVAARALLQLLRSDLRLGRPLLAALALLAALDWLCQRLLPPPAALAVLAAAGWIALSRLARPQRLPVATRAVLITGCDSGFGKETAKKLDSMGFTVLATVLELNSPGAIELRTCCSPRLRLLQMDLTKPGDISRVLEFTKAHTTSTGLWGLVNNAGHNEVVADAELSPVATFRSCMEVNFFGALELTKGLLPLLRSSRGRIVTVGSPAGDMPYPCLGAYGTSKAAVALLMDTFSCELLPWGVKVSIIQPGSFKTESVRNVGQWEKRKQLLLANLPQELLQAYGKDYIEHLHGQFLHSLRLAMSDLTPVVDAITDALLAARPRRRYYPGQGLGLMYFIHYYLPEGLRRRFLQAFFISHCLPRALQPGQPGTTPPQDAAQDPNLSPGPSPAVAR
# Procedure: as §1, §2
# 11β-HSD2 Cys^127Ser = 11β-HSD2 Cys^127Ser (Homo sapiens, UniProt P80365, C127S); details: read-out: TBT IC50 ± SD, Cys^127Ser; mutant Cys^127Ser, lysate
# Chain of 11β-HSD2 Cys^127Ser (P80365 whole entry C127S): as the sequence (P80365 whole entry C264S) above, with C127S, S264C counted along it
# Procedure: as §1, §2
# 11β-HSD2 Cys^48Ser = 11β-HSD2 Cys^48Ser (Homo sapiens, UniProt P80365, C48S); details: read-out: TBT IC50 ± SD, Cys^48Ser; mutant Cys^48Ser, lysate
# Chain of 11β-HSD2 Cys^48Ser (P80365 whole entry C48S): as the sequence (P80365 whole entry C264S) above, with C48S, S264C counted along it
# Procedure: as §1, §2
# 11β-HSD2 Cys^188Ser = 11β-HSD2 Cys^188Ser (Homo sapiens, UniProt P80365, C188S); details: read-out: TBT IC50 ± SD, Cys^188Ser; mutant Cys^188Ser, lysate
# Chain of 11β-HSD2 Cys^188Ser (P80365 whole entry C188S): as the sequence (P80365 whole entry C264S) above, with C188S, S264C counted along it
# Procedure: as §1, §2
# 11β-HSD2 Cys^128Ser = 11β-HSD2 Cys^128Ser (Homo sapiens, UniProt P80365, C128S); details: read-out: TBT IC50 ± SD, Cys^128Ser; mutant Cys^128Ser, lysate
# Chain of 11β-HSD2 Cys^128Ser (P80365 whole entry C128S): as the sequence (P80365 whole entry C264S) above, with C128S, S264C counted along it
# Procedure: as §1, §2
# 11β-HSD2 Cys^371Ser = 11β-HSD2 Cys^371Ser (Homo sapiens, UniProt P80365, C371S); details: read-out: TBT IC50 ± SD, Cys^371Ser; mutant Cys^371Ser, lysate
# Chain of 11β-HSD2 Cys^371Ser (P80365 whole entry C371S): as the sequence (P80365 whole entry C264S) above, with S264C, C371S counted along it
# Procedure: as §1, §2
# 11β-HSD2 [2] = molecular target: 11β-HSD2 (Rattus norvegicus, UniProt P50233)
# Chain of 11β-HSD2 (Rattus norvegicus, UniProt P50233) (P50233 whole entry): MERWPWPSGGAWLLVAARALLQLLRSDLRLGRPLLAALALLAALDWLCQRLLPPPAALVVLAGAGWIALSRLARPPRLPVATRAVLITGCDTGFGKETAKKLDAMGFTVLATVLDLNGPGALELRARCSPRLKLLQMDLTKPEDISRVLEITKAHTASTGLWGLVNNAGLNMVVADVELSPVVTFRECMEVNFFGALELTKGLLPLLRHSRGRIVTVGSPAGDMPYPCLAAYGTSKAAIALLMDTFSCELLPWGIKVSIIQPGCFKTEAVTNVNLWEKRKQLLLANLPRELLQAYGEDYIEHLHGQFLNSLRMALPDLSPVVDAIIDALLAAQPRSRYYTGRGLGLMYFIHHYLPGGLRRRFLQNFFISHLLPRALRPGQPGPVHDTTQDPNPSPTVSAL
# Procedure: (§3) SW-620 (human colorectal adenocarcinoma) cells and JEG-3 (human choriocarcinoma) cells were cultured according to the recommendations of the supplier (American Type Culture Collection, Manassas, VA, USA).
# (§4) HEK-293 cells stably transfected with 11β-HSD2 (25,000 cells per well) were seeded 24 hr prior to the assay in poly-D-lysine coated 96-well Biocoat plates (Becton Dickinson, Basel, Switzerland). The medium was carefully removed, followed by the addition of 30 μL fresh medium, 10 μL medium containing various concentrations of organotins, and 10 μL radiolabeled cortisol. The reaction volume was 50 μL, with a final cortisol concentration of 40 nM. The cells were incubated for 2 hr at 37°C under 5% CO2. We stopped reactions by adding an excess of unlabeled cortisone and cortisol in methanol, and separated steroids using thin-layer chromatography, followed by scintillation counting. 11β-HSD2 activity in JEG-3, SW-620, and RCCD-2 cells was measured similarly by adjusting the cell density and reaction time to obtain a maximal conversion of cortisol between 15 and 25%.
# 11β-HSD2 [3] = molecular target: T1, 11β-HSD2 (Homo sapiens, UniProt P80365); details: endogenous enzyme, intact cells
# T1 sequence (P80365 1-405): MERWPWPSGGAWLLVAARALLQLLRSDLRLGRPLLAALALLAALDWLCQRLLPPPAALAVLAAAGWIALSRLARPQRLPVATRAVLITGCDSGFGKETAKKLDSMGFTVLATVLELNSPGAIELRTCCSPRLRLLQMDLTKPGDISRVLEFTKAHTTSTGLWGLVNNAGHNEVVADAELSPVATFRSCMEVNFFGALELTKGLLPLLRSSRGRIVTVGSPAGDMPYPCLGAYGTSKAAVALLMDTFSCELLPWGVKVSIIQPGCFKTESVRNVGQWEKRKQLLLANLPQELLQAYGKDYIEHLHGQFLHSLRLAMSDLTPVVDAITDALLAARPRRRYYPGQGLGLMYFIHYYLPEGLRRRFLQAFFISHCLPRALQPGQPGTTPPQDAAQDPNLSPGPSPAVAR
# Procedure: as §3, §4
# 11β-HSD2 [4] = molecular target: T1, 11β-HSD2; experiment: 11β-HSD2 activity in intact stably transfected HEK-293 cells; assay type: cell-based; parameters: expressed in transfected cells; host or cells: HEK-293, stably transfected; details: for IC50: HEK-293 stably transfected, 40 nM cortisol, 2 hr; for 11β-HSD2 activity in intact cells, compound alone: concentrations 50% below their IC50 value
# 11β-HSD2 [5] = molecular target: T1, 11β-HSD2; experiment: 11β-HSD2 activity in lysates of stably transfected HEK-293 cells (cortisol to cortisone); assay type: biochemical; parameters: expressed in transfected cells; host or cells: HEK-293, stably transfected; details: for Vmax of 11β-HSD2 in presence of inhibitor: control 2.14 ± 0.32
# Procedure: Cells were rinsed 3 times with phosphate-buffered saline (PBS) and resuspended in 2 mL ice-cold buffer TS2 (100 mM NaCl, 1 mM EGTA, 1 mM EDTA, 1 mM MgCl2, 250 mM sucrose, 20 mM Tris-HCl, pH 7.4). Aliquots of the cell suspension were frozen at −20°C, retaining full enzymatic activity for at least 3 months. For determinationof 11β-HSD2 activity, aliquots were thawed, sonicated, and diluted 1:12 in buffer TS2 (4°C). We carried out reactions in a final volume of 20 μL containing 10 nCi [1,2,6,7-^3H]-cortisol, 400-μM NAD^+, and different concentrations of unlabeled cortisol. […] Incubations were for 10 min at 37°C.
# 11β-HSD1 = molecular target: T2, 11β-HSD1 (Homo sapiens, UniProt P28845); experiment: 11β-HSD1 oxoreductase activity in cell lysates (cortisone to cortisol); assay type: biochemical; details: for inhibition of 11β-HSD1-dependent conversion of cortisone to cortisol: concentrations up to 200 μM, lysate; for IC50: lysates of transfected HEK-293 cells, cortisone as substrate, read-out: IC50 11β-HSD1, cell lysate
# T2 construct: expressed in transfected cells; host or cells: HEK-293, calcium-phosphate transfection, lysate
# T2 sequence (P28845 whole entry): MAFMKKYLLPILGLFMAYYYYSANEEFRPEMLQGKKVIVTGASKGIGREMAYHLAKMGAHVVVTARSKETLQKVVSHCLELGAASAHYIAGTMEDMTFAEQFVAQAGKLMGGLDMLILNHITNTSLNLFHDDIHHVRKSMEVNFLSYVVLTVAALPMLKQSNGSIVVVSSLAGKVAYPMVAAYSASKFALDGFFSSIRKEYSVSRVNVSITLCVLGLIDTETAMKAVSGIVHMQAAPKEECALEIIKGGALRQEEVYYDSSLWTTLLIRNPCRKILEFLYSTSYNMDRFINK
# Procedure: (§5) For determination of 11β-HSD1, 17β-HSD1, and 17β-HSD2 activity, HEK-293 cells transfected by the calcium-phosphate precipitation method were harvested 48 hr later, washed with PBS, and centrifuged for 3 min at 150 × g. Supernatants were removed, cell pellets quick-frozen in a dry ice ethanol bath, and stored at −70°C. For assaying 11β-HSD1, we dissolved pellets in TS2 buffer; for 17β-HSD1 or 17β-HSD2, we used a buffer containing 50 mM potassium phosphate, 20% glycerol, and 1 mM EDTA. We measured 11β-HSD1 oxoreductase activity as described recently ([Atanasov et al. 2004]), using radiolabeled cortisone as substrate. 17β-HSD1 and 17β-HSD2 activities were measured in the presence of radiolabeled estrone or estradiol and unlabeled steroid at final concentrations of 200 nM and 500 μM NADPH or NAD^+, respectively.
# 17β-HSD2 = molecular target: T3, 17β-HSD2 (Homo sapiens, UniProt P37059); experiment: 17β-HSD2 activity in cell lysates (estradiol to estrone); assay type: biochemical; details: for IC50: lysates of transfected HEK-293 cells, 200 nM estradiol, NAD+, read-out: IC50 17β-HSD2, cell lysate
# T3 construct: expressed in transfected cells; host or cells: HEK-293, calcium-phosphate transfection, lysate
# T3 sequence (P37059 1-387): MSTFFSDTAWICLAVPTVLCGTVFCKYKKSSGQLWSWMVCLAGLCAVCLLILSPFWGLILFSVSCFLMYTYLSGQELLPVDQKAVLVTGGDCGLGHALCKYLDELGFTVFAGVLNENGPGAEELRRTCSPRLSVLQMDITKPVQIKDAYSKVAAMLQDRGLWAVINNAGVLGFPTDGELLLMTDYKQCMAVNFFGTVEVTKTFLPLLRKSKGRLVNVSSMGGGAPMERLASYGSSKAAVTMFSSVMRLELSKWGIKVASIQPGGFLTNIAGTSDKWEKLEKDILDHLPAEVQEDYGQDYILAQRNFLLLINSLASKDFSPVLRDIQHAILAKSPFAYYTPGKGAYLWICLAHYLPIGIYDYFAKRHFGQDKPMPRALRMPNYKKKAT
# Procedure: as §5
# 17β-HSD1 = molecular target: T4, 17β-HSD1 (Homo sapiens, UniProt P14061); experiment: 17β-HSD1 activity in cell lysates (estrone to estradiol); assay type: biochemical; details: for inhibition of 17β-HSD1: lysate; for IC50: lysates of transfected HEK-293 cells, 200 nM estrone, NADPH, read-out: IC50 17β-HSD1, cell lysate
# T4 construct: expressed in transfected cells; host or cells: HEK-293, calcium-phosphate transfection, lysate
# T4 sequence (P14061 1-328): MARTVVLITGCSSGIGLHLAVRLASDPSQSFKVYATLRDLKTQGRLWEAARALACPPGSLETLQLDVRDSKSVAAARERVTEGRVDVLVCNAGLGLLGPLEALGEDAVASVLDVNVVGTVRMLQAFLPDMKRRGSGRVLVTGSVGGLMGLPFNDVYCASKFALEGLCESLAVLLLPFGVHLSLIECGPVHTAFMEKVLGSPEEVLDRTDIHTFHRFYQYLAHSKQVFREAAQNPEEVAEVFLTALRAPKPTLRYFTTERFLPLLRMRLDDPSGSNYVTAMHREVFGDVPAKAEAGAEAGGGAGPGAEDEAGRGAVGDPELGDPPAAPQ
# Procedure: as §5
# [6] = 40 nM cortisol, 400 μM NAD+, 10 min 37°C, read-out: IC50 11β-HSD2, cell lysate
# Chain of 11β-HSD2 Cys^248Ser (P80365 whole entry C248S): as the sequence (P80365 whole entry C264S) above, with C248S, S264C counted along it
structure (smiles),measurement,setting,value
"CCC[CH2][Sn]([CH2]CCC)[CH2]CCC [TBT, tributyltin]",toxic daily intake,[1],0.25 μg/kg body weight
same,IC50,11β-HSD2 Cys^248Ser,2.07 ± 0.47 µM
same,increase in IC50 with Cys^264Ser versus wild-type,11β-HSD2 Cys^264Ser,2 fold
same,IC50,"11β-HSD2 Cys^264Ser; read-out: TBT IC50 ± SD, Cys^264Ser, mutant Cys^264Ser",4.2 ± 0.44 µM
same,IC50,11β-HSD2 Cys^127Ser,2.23 ± 0.33 µM
same,IC50,11β-HSD2 Cys^48Ser,2.11 ± 0.33 µM
same,IC50,11β-HSD2 Cys^188Ser,1.95 ± 0.38 µM
same,IC50,11β-HSD2 Cys^128Ser,1.87 ± 0.53 µM
same,IC50,11β-HSD2 Cys^371Ser,2.17 ± 0.5 µM
same,stronger inhibition in RCCD-2 cells than in HEK-293 cells,11β-HSD2 [2]; intact cells,approximately 2 fold
same,IC50,"11β-HSD2 [2]; read-out: IC50 11β-HSD2 in intact RCCD-2 cells, endogenous enzyme, rat renal cortical collecting duct cells",0.83 ± 0.23 µM
same,inhibition of 11β-HSD2 in SW-620 cells compared with HEK-293 cells,11β-HSD2 [3]; colon-derived,highly similar to that observed in HEK-293 cells
same,inhibition of 11β-HSD2 in JEG-3 cells compared with HEK-293 cells,11β-HSD2 [3]; placenta-derived,highly similar to that observed in HEK-293 cells
same,IC50,11β-HSD2 [4],1.52 ± 0.43 µM
same,"11β-HSD2 activity in intact cells, compound alone",11β-HSD2 [4],reduced 11β-HSD2 activity only slightly
same,IC50,11β-HSD2 [5]; [6],1.9 ± 0.66 µM
same,increase of apparent Km,11β-HSD2 [5]; 2 μM TBT versus control,2 fold
same,change of inhibitory effect upon preincubation,"11β-HSD2 [5]; 2 μM TBT, preincubation 5 or 10 min, lysate",the changes did not reach significance
same,Vmax of 11β-HSD2 in presence of inhibitor,11β-HSD2 [5]; 2 μM TBT,1.66 ± 0.40 nmol/h/mg
same,increase of apparent Km,11β-HSD2 [5]; 3 μM TBT versus control,3 fold
same,Vmax of 11β-HSD2 in presence of inhibitor,11β-HSD2 [5]; 3 μM TBT,1.48 ± 0.48 nmol/h/mg
same,effect of dilution of enzyme-inhibitor complex on relative inhibition,11β-HSD2 [5]; 2-fold and 4-fold dilution of the EI complex,proportional decrease of the relative inhibitory effect
same,IC50,"11β-HSD2 [5]; Table 2, wild-type enzyme, lysate, read-out: TBT IC50 ± SD, wild-type 11β-HSD2",1.9 ± 0.46 µM
same,mode of inhibition of 11β-HSD2,11β-HSD2 [5]; from change of Km and Vmax with TBT,mixed-competitive mode of inhibition
same,inhibition of 11β-HSD1-dependent conversion of cortisone to cortisol,11β-HSD1,did not inhibit
same,IC50,11β-HSD1,> 200 µM
same,IC50,17β-HSD2,> 200 µM
same,inhibition of 17β-HSD1,17β-HSD1,neither TBT nor TPT inhibited
same,IC50,17β-HSD1,> 200 µM
"c1cc[c]([Sn]([c]2ccccc2)[c]2ccccc2)cc1 [TPT, triphenyltin]",IC50,11β-HSD2 [4],0.99 ± 0.24 µM
same,"11β-HSD2 activity in intact cells, compound alone",11β-HSD2 [4],reduced 11β-HSD2 activity only slightly
same,IC50,11β-HSD2 [5]; [6],3.19 ± 0.73 µM
same,inhibition of 11β-HSD1-dependent conversion of cortisone to cortisol,11β-HSD1,did not inhibit
same,IC50,11β-HSD1,> 200 µM
same,IC50 for 17β-HSD2 relative to IC50 for 11β-HSD2,17β-HSD2; lysates,6 fold
same,IC50,17β-HSD2,19 ± 3 µM
same,inhibition of 17β-HSD1,17β-HSD1,neither TBT nor TPT inhibited
same,IC50,17β-HSD1,> 200 µM
"CCC[CH2][Sn][CH2]CCC [DBT, dibutyltin]",IC50,11β-HSD2 [4],5.03 ± 0.7 µM
same,"11β-HSD2 activity in intact cells, compound alone",11β-HSD2 [4],reduced 11β-HSD2 activity only slightly
same,IC50,11β-HSD2 [5]; [6],1.95 ± 0.27 µM
